{"source": "patent US12344852B2", "about": "“Control of phenotype in plants” (GREENVENUS, LLC, priority 2016, dated 2025)", "key": {"[1]": {"tested_on": "EcR-based gene switch (IP:GFP, ID38) in transgenic Arabidopsis leaf samples", "assay": "Ligand-induced GFP expression in leaf samples of IP:GFP (ID38) transgenic plants", "assay_type": "cell-based", "settings": "leaf samples of IP:GFP plants on media containing ligand, 24 hr; not induced in wt control", "description": "Transform wild type Arabidopsis to introduce inducible GFP reporter: DNA construct ID38, which is shown diagrammatically in FIG. 1A, may be used to transform wild type (wt) Arabidopsis. […]\nGFP gene will not be expressed until methoxyfenozide (activator ligand—AL) is provided to mobilize the activator proteins for binding to the GAL4-RE and switching on the IP. […] Since GFP expression can be conveniently monitored in live plants under a fluorescence microscope, the transgenic Arabidopsis can be used to study the dosage, timing, and half life time of the ligand application. […]\nBriefly, the DNA constructs shown in FIG. 1 were built following standard molecular cloning procedures and transformed into disarmed Agrobacterium tumefaciens strain AGL1. […] Selected transgenic plants were analyzed by quantitative PCR (qPCR) and PCR to check transgene copy numbers and transgene intactness. […]"}, "[2]": {"tested_on": "Botrytis cinerea", "assay": "Ligand inducible disease resistance screening of detached petunia leaves", "assay_type": "in vivo", "protocol": "Botrytis cinerea isolation and inoculation. The plant pathogen was isolated from diseased strawberries displaying typical symptomology. A single spore colony was isolated using standard plant pathology methodologies and the ITSI—5.8S rDNA—ITSII locus was amplified and sequenced to validate its identity. The isolate used is 100% identical to more than 20 previously reported B. cinerea isolates in Genbank. For plant inoculation B. cinerea was grown on V8 Agar media under fluorescent light for 2 weeks until the typical grey mass of aerial spores was visible. A section of the colony was placed into 10 mL of sterile DI water and vortexed vigorously to dislodge spores. The resulting solution was filtered through a 70 micron mesh to yield a homogenous spore solution free of mycelia and agar media. The spore solution was spun down and washed 3× in sterile DI water and quantified using a hemocytometer. The solution was diluted in sterile DI water to a final concentration of 200,000 spores/ml. For petunia inoculations, detached leaves were wounded with a sterile forceps (approximately 0.5 mm abrasion) and the wounded site was inoculated with 10 μL of spore solution (2,000 spores/inoculation site). Three leaves/treatment and three wound sites/leaf were inoculated with spore solution for each assay. […]"}, "[3]": {"tested_on": "IP:ChsA RNAi (ID164) transgenic Petunia plants", "assay": "Flower color change in IP:ChsA RNAi (ID164) transgenic petunia after ligand spray", "assay_type": "in vivo, Petunia hybrida variety V26", "settings": "for time to change flower color from dark purple to variegate: one application", "description": "DNA construct ID164 (LB-IP:ChsA RNAi+35S:AP+CsVMV:NptII-RB) (SEQ ID NO:55) containing both the inducible promoter (IP) composed of 5 GAL4 regulatory elements (GAL4-RE) placed upstream of the minimal CaMV-35S promoter and the multidomain activator (AP) protein gene (VGE(E68V/V184I/Y204E) under the control of CaMV-35S promoter is shown in FIG. 20B. ID164 (SEQ ID NO:55) was used to transform wild type (wt) Petunia hybrid variety V26. The chalcone synthase hairpin transcript will not be express until the activator ligand (methoxyfenozide; Mtf) is provided to mobilize the activator proteins for binding to the GAL4-RE and switching the inducible promoter FS on. Transgene copy number was assessed for 56 TO transgenic plants by Tagman assay. 84% were low copies (two copies and below), 12.5% were high copy (three copies and above) and, few plants were nulls. Before ligand application most (98%) plants were flowering as dark purple color. Plants were divided in five groups, each group being treated differently. Treatment occurred every other day at a rate of 30 ml per plant. Treatment is sprayed on plants (leaves and flowers). Water is used as a mock treatment while INTREPID® 2F insecticide (Mtf being the active ingredient) is used as a ligand treatment. Group one was mock treated. Group two was treated with 2.5 uM Mtf in INTREPID® 2F insecticide form. Group three was treated with 1 mM Mtf (highest recommended dose on ornamental plants for INTREPID® 2F). Group four was treated with 2 mM Mtf and group five treated with 5 mM Mtf. […] When increasing the ligand concentration to 1 mM, change in flower color, dark purple to variegate, was observed faster (7 days post-treatment) on 50% of plants as shown in FIG. 23. With 2 mM and 5 mM ligand, one application (2 days post-treatment) was sufficient to change flower color from dark purple to variegate as shown in FIG. 24 and FIG. 25, respectively. Decrease in ChsA gene expression level in treated plants compared to their higher level before ligand treatment correlates with their change in flower color as shown in FIG. 21."}}, "data": [{"compound": "COc1cccc(C(=O)NN(C(=O)c2cc(C)cc(C)c2)C(C)(C)C)c1C", "note": "[methoxyfenozide, 3-methoxy-2-methylbenzoic acid 2-(3,5-dimethylbenzoyl)-2-(1,1-dimethylethyl)hydrazide]", "values": [{"measurement": "concentration at which GFP expression was induced", "setting": "[1]", "result": "≤ 16", "unit": "nM"}, {"measurement": "disease resistance of Switch-DCL1/DCL2/GUS hairpin line", "setting": "[2]; leaves on 50 uM in 1% phytoagar, inoculated after 3 days, read 7 days after pathogen inoculation", "result": "ligand induced disease resistance"}, {"measurement": "disease resistance of constitutive DCL-25 (+ control) and non-specific dsRNA line (− control)", "setting": "[2]; presence or absence of 50 uM ligand", "result": "no change in disease resistance"}, {"measurement": "time to flower color change from dark purple to light purple", "setting": "[3]; 2.5 uM", "result": 10, "unit": "days post-treatment"}, {"measurement": "plants showing flower color change from dark purple to light purple", "setting": "[3]; 2.5 uM, sprayed every other day, 30 ml per plant, INTREPID 2F form", "result": 50, "unit": "%"}, {"measurement": "plants showing change in flower color, dark purple to variegate", "setting": "[3]; 1 mM", "result": 50, "unit": "%"}, {"measurement": "time to change in flower color, dark purple to variegate", "setting": "[3]; 1 mM", "result": 7, "unit": "days post-treatment"}, {"measurement": "time to change flower color from dark purple to variegate", "setting": "[3]; 2 mM", "result": 2, "unit": "days post-treatment"}, {"measurement": "time to change flower color from dark purple to variegate", "setting": "[3]; 5 mM", "result": 2, "unit": "days post-treatment"}]}]}
